Test results taken from paper PMC7179167 (Molecules, 2020).
In brackets after ≈: the same amount, converted by molar mass. Read-outs that look alike come from different tables or passages of the source.

Assays:
[1] = tested on: S. cerevisiae (ATCC 9080); assay: Disk diffusion antimicrobial test, S. cerevisiae; format: cell-based; conditions: Saccharomyces cerevisiae, ATCC9080, yeast, 20 mg per disc (title), concentration 20 µg (footnote)
Experimental: (§1) The newly synthesized compounds were chosen to be evaluated in vitro towards a variety of pathogenic microorganisms; Gram-positive bacteria: S. aureus (ATCC 6538) and B. subtilis (ATCC 6633); Gram-negative bacteria: P. areuginosa (ATCC 27853) and E. coli (DSMZ 1058); yeast: C. albicans (ATCC 10231) and S. cerevisiae (ATCC 9080) and fungi: A. niger (NRRL A-326) using the disk diffusion method at a single dose of 20 µl. The results are shown in Table 1 as the growth inhibition zone (mm).
(§2) The antimicrobial activity of target compounds were evaluated to be in vitro against a variety of pathogenic microorganisms, namely Staphylococcus aureus (ATCC 6538), Bacillus subtilis (ATCC 6633) (Gram-positive bacteria), Pseudomonas areuginosa (ATCC 27853), Escherichia coli (DSMZ 1058) (Gram-negative bacteria), Candida albicans (ATCC 10231), Saccharomyces cerevisiae (ATCC 9080) (Yeast) and Aspergillus niger (NRRL A-326) (Fungi) using the disk diffusion method at a single dose of 20 µg. The microorganisms were served and obtained from the Microbial Biotechnology Department, National Research Center, Giza, Egypt. Amphotericin, amoxicillin and ciprofloxacin were used as reference drugs (Oxoid™ Disks). The tested compounds 11a–c, 12a–c, 13a–i, 14a–i and 15a,b were dissolved in dimethylsulphoxide (DMSO) at a concentration of 1 mg/mL. Aliquots of 20 μl were soaked on filter paper discs (6 mm) and dried at room temperature under sterilized conditions. The paper discs were placed on inoculated agar plats and then incubated for 24 h at 37 °C for bacterial strains and after 48–72 h incubation at 30 °C for fungi. Both bacterial and yeast strains were grown on nutrient agar medium (g/l): beef extract, 3; peptone, 10 and agar, 20 at pH of 7.2. The fungal strain was grown on Czapek-Dox medium (g/l): sucrose, 30; NaNO3, 3; MgSO4.7H2O, 0.5l; KCl, 0.5; FeSO4, 0.01; K2HPO4, 1 and agar, 20 at pH of 6.0.

A. niger (NRRL A-326) = assay: Disk diffusion antimicrobial test, A. niger; format: cell-based; conditions: Aspergillus niger, fungi, 20 mg per disc (title), concentration 20 µg (footnote)
Experimental: as §1, §2

C. albicans (ATCC 10231) = assay: Disk diffusion antimicrobial test, C. albicans; format: cell-based, Candida albicans; conditions: yeast, 20 mg per disc (title), concentration 20 µg (footnote); for zone of inhibition at 20 µg/disc: Candida albicans, ATCC10231, disk diffusion
Experimental: as §1, §2

S. aureus (ATCC 6538) = assay: Disk diffusion antimicrobial test, S. aureus; format: cell-based, Staphylococcus aureus; conditions: 20 mg per disc (title), concentration 20 µg (footnote); for zone of inhibition at 20 µg/disc: Staphylococcus aureus, ATCC6538, Gram-positive
Experimental: as §1, §2

[2] = DPPH free radical scavenging assay; format: biochemical; conditions: concentration of 20µg/l, mean ± SD of three experiments
Experimental: Antioxidant activity of the newly synthesized 13a–i, 14a–i, 11a–c and 12a–c were assessed in terms of hydrogen-donating or radical-scavenging ability via the stable free radical 1,1-diphenyl-2-picrylhydrazyl (DPPH) using ascorbic acid as a reference at a concentration of […].
The free radical scavenging activity (RSA) was assessed spectrophotometically at 517 nm via decoloration of the solution of the DPPH (1,1-diphenyl-2-picrylhydrazyl) radical according to Brand-Williams et al. 1995 [32]. DPPH solution was prepared by dissolving of 20 mg of DPPH in one liter of dimethylsulphoxide (DMSO). A freshly prepared DPPH solution was used for the assay. Each of the tested compounds 11a–c, 12a–c, 13a–i, 14a–i and 15a,b were dissolved in DMSO (1mg/mL). A volume of […] of a DMSO stock solution of the test compounds was added to 2 mL of freshly prepared DPPH in DMSO solution. The mixtures were shaken in a vortex (2500 rpm) for 1 min and then left to stand for 15, 30, 45 and 60 min in the dark room. The absorbance was measured at 517 nm against blank using UV visible spectrophotometer 2401 PC (Shimadzu, Kyoto, Japan). Lower absorbance of the reaction mixture indicated higher free radical scavenging activity was analyzed from the graph plots of the inhibition percentage against the compound concentration. The experiment was carried out in triplicate and averaged. The scavenging activity was calculated according to the following formula:Scavenging ability (%) = (A517 of control - A517of sample / A 517 of control) ×100(1)

B. subtilis (ATCC 6633) = assay: Disk diffusion antimicrobial test, B. subtilis; format: cell-based, Bacillus subtilis; conditions: 20 mg per disc (title), concentration 20 µg (footnote); for zone of inhibition at 20 µg/disc: Bacillus subtilis, ATCC6633, Gram-positive
Experimental: as §1, §2

[3] = tested on: P. aeruginosa (ATCC 27853); assay: Disk diffusion antimicrobial test, P. aeruginosa; format: cell-based, Pseudomonas areuginosa; conditions: Pseudomonas aeruginosa, ATCC27853, Gram-negative, 20 mg per disc (title), concentration 20 µg (footnote)
Experimental: as §1, §2

Bcl-2 [4] = assay: Bcl-2 ELISA in MCF-7 cells; format: cell-based, human; conditions: MCF-7 cells treated at IC50 concentration; control 25.13 ± 3.45; mean ± SD
Excerpt: (§3) The promising antiproliferative results reported for compounds 11a, 11b, 12a, 12b and 13c against cell lines under study have prompted us to investigate the mechanism of cell death induced by these compounds. Apoptosis induction was examined in both MCF-7 and HCT-116 cancer cells by assaying the level of its key protein markers, namely: proapoptotic (p53, Bcl 2-associated X, Bax and caspases3) and antiapoptotic (B-cell lymphoma-2, Bcl-2). MCF-7 and HCT-116 cells undergoing apoptosis was detected by use of the ELISA technique. Protein marker levels were quantified according to Bradford assay.
(§4) Briefly, cells ([…] and HCT) were seeded at a concentration of 1.2–1.8 × 10^3 cells/well in 6-well plates. After 48-h treatment, the collected cells were lysed and centrifuged at 10,000 rpm for 20 min at 4 °C. The protein concentration was measured in the supernatant by Bradford protein assay. Volume containing […] of total protein was incubated with […] of caspase substrate in […] of the reaction buffer at 37 °C for 1 h in the dark. Caspase-3 activity was determined by a microplate reader at 405 nm using a caspase-3 colorimetric assay kit (Abcam) according to the manufacturer’s instructions. In vitro protein level quantitative measurement of apoptotic marker p53, Bcl-2-associated X (Bax) and antiapoptotic marker B-cell lymphoma-2 (Bcl-2) in cell lysate were assessed by Enzyme-Linked Immunosorbent Assay Simple Step ELISA® (ab199080, ab119506 and ab171571; Abcam) according to the manufacturer’s instructions.

[5] = tested on: HepG-2 (human liver cancer); assay: MTT cytotoxicity assay, HepG-2; format: cell-based
Experimental: (§5) MCF-7 (human breast cancer), HCT-116 (human colon cancer) and HepG2 (human liver cancer) cell lines were obtained from Karolinska Institute, Stockholm, Sweden. All cells were maintained in RPMI 1640 medium. The media were supplemented with 10% heat-inactivated fetal bovine serum plus 1% antibiotic-antimycoticmixture (10,000 U/mL of potassium penicillin, 10,000 μg/mL of streptomycin sulfate, 25 μg/mL of amphotericin B and 1% of L glutamine (Biowest, USA)). BJ-1 of a human skin fibroblast derived from normal foreskin was obtained from ATCC® CRL-2522™ as a frozen ampoule with about 1 × 10^6 cells per 1 ml volume. BJ-1 was maintained in MEM with 2 mM of L-glutamine and Earle’s salts medium.
(§6) Cell viability was studied using the MTT 3-(4,5-dimethylthiazol-2-yl)-2,5-diphenyl-tetrazolium bromide (Bio Basic Canada Inc. Toronto, Canada) assay [33]. The steps were executed in a sterile laminar air flow cabinet biosafety class II level (Baker, SG403INT; Sanford, ME, USA). All incubations were carried out at 37 °C in a 5% CO2 incubator under a humidified atmosphere of 95% (Sheldon, TC2323; Cornelius, OR, USA). Cells were seeded into 96-well microtiter plastic plates at a concentration of (10^4 cells/well) and allowed to adhere for 24 h. The medium was aspirated and then added to the cells with the test compounds 11a–c, 12a–c, 13a–i, 14a–i and 15a,b at a single dose of 100 μg/mL in DMSO. After incubation of the medium for 48 h, 40 μL of MTT salt (2.5 μg/mL) was added to each well and then incubated for an additional 4 h. To stop the reaction and dissolve any formed formazan crystals, 200 μL of 10% sodium dodecyl sulfate (SDS) were added to each well and incubated overnight at 37 °C. The amount of formazan product was measured at 595 nm with a reference wavelength of 690 nm as a background using a microplate reader (Bio-Rad Laboratories, model 3350, California, USA). For the untreated cells (negative control), the medium was added instead of the tested compounds. […] Dimethylsulfoxide (DMSO) was the vehicle used for dissolution of the testing compound, and its final concentration on the cells was less than 0.2%. At the same dilution, the solvent concentration was the same for all drugs and between the control and drug treatments.

Bcl-2 [6] = assay: Bcl-2 ELISA in HCT-116 cells; format: cell-based, human; conditions: HCT-116 cells treated at IC50 concentration; control 23.56 ± 3.56; mean ± SD
Excerpt: as §3, §4

[7] = tested on: normal skin fibroblast cells (BJ-1); assay: MTT cytotoxicity assay, normal skin fibroblast BJ-1; format: cell-based; conditions: Homo sapiens, 48 h, read-out: Growth Inhibition (%) BJ-1
Experimental: as §5, §6

[8] = tested on: HCT-116 (human colon cancer); assay: MTT cytotoxicity assay, HCT-116; format: cell-based; conditions: Homo sapiens; for inhibition at 100 µg/mL: HCT-116, 100 µg/ml, 48 h, read-out: Growth Inhibition (%) HCT-116
Experimental: as §5, §6

p53 [9] = assay: p53 ELISA in HCT-116 cells; format: cell-based, human; conditions: HCT-116 cells treated at IC50 concentration; control 1.68 ± 0.06; mean ± SD
Excerpt: as §3, §4

[10] = tested on: MCF-7 (human breast cancer); assay: MTT cytotoxicity assay, MCF-7; format: cell-based; conditions: for inhibition at 100 µg/mL: MCF7, 100 µg/ml, 48 h, read-out: Growth Inhibition (%) MCF-7
caspase-3 [11] = assay: Caspase-3 colorimetric assay in MCF-7 cells; format: cell-based, human
Excerpt: as §3, §4

caspase-3 [12] = assay: Caspase-3 colorimetric assay in HCT-116 cells; format: cell-based, human; conditions: HCT-116 cells treated at IC50 concentration; control 13.60 ± 2.45; mean ± SD
Excerpt: as §3, §4

Bax [13] = assay: Bax ELISA in HCT-116 cells; format: cell-based, human; conditions: HCT-116 cells treated at IC50 concentration; control 118.54 ± 0.83; mean ± SD
Excerpt: as §3, §4

p53 [14] = assay: p53 ELISA in MCF-7 cells; format: cell-based, human; conditions: MCF-7 cells treated at IC50 concentration; control 4.18 ± 0.58; mean ± SD
Excerpt: as §3, §4

Bax [15] = assay: Bax ELISA in MCF-7 cells; format: cell-based, human; conditions: MCF-7 cells treated at IC50 concentration; control 39.56 ± 4.56; mean ± SD
Excerpt: as §3, §4

[16] = 15 min, read-out: Scavenging Activity (%) on DPPH radicals at 15 min
[17] = 30 min, read-out: Scavenging Activity (%) on DPPH radicals at 30 min
[18] = 45 min, read-out: Scavenging Activity (%) on DPPH radicals at 45 min
[19] = 60 min, read-out: Scavenging Activity (%) on DPPH radicals at 60 min

Compound | zone of inhibition at 20 µg/disc [1] | zone of inhibition at 20 µg/disc (A. niger (NRRL A-326)) | zone of inhibition at 20 µg/disc (C. albicans (ATCC 10231)) | inhibition [2, 16] | inhibition [2, 17] | inhibition [2, 18] | inhibition [2, 19] | zone of inhibition at 20 µg/disc (S. aureus (ATCC 6538)) | zone of inhibition at 20 µg/disc [3] | zone of inhibition at 20 µg/disc (B. subtilis (ATCC 6633)) | inhibition at 100 µg/mL [7] | inhibition at 100 µg/mL [8] | inhibition at 100 µg/mL [10] | further results
C[C@@H]1[C@H](O)[C@@H](C)/C=C/C=C/C=C/C=C/C=C/C=C/C=C/[C@H](O[C@@H]2O[C@H](C)[C@@H](O)[C@H](N)[C@@H]2O)C[C@@H]2O[C@](O)(C[C@@H](O)C[C@@H](O)[C@H](O)CC[C@@H](O)C[C@@H](O)CC(=O)O[C@H]1C)C[C@H](O)[C@H]2C(=O)O [Amphotericin B, amphotericin B, reference compound] | 23.5 mm | 26.7 mm | 23.5 mm |  |  |  |  |  |  |  |  |  |  | 
3-(6-Hydroxy-4,6-dimethoxybenzofuran-5-yl)quinoline-4-carboxylic acid [Compound 15b] |  |  |  | 23.6 ± 1.36% | 32.7 ± 1.13% | 39.2 ± 1.29% | 47.5% |  |  |  |  |  |  | Inhibition Zone (mm), S. aureus (ATCC 6538) (S. aureus (ATCC 6538); Gram-positive): 8 mm; Inhibition Zone (mm), B. subtilis (ATCC 6633) (B. subtilis (ATCC 6633); Gram-positive): 10 mm; Inhibition Zone (mm), C. albicans (ATCC 10231) (C. albicans (ATCC 10231); disk diffusion): 8 mm
COc1c(-c2cnc3ccccc3c2C(=O)O)c(O)cc2occc12 [Compound 15a, 3-(6-Hydroxy-4-methoxybenzofuran-5-yl)quinoline-4-carboxylic acid] |  | 10 mm | 12 mm | 9.36 ± 1.25% | 14.2 ± 1.61% | 20.4 ± 1.92% | 24.8 ± 2.05% | 8 mm | 24 mm | 16 mm |  |  |  | melting point: 217 to 219 °C
O=C1Nc2ccccc2C12CC(c1cn(Cc3ccccc3)c3ccccc13)=NN2 (stereo not shown) [Compound 13c, 5’-(N-Benzyl-1H-indol-3-yl)-2’,4’-dihydrospiro(indoline-3,3’-pyrazol)-2-one] |  |  |  | 14 ± 1.36% | 21 ± 1.26% | 24 ± 1.51% | 35.1 ± 1.61% |  |  |  | 5.1% | 97.9% | 97.8% | Bcl-2 (ng/50 mg Protein) (Bcl-2 [4]): 44.5 ± 4.56 ng/50 mg Protein; inhibition at 100 µg/mL ([5]; HepG2, 100 µg/ml, 48 h, read-out: Growth Inhibition (%) HepG-2): 90.9%; IC50 ([5]; HepG2, 48 h post-treatment): 27 µg/mL (≈ 68.8 µM); Bcl-2 (ng/50 mg Protein) (Bcl-2 [6]): 57.45 ± 6.45 ng/50 mg Protein; IC50 ([8]; HCT-116, 48 h, 48 h post-treatment): 14.7 µg/mL (≈ 37.5 µM); p53 (pg/50 mg Protein) (p53 [9]): 2.34 ± 0.95 pg/50 mg Protein; IC50 ([10]; MCF7, 48 h post-treatment): 24.1 µg/mL (≈ 61.4 µM); Caspase-3 Activity % (caspase-3 [11]; MCF-7 cells treated at IC50 concentration, control 10.2 ± 2.84, mean ± SD): 39.07 ± 4.97%; Elevation of active caspase-3 protein levels compared to the control (caspase-3 [11]; MCF-7 cells, IC50 concentration): ~3.8 folds; Caspase-3 Activity % (caspase-3 [12]): 47.32 ± 6.32%; Bax (pg/50 mg Protein) (Bax [13]): 123.45 ±7.45 pg/50 mg Protein; p53 (Pg/50 mg Protein) (p53 [14]): 7.34 ± 1.5 Pg/50 mg Protein; Bax (pg/50 mg Protein) (Bax [15]): 88.34 ± 3.79 pg/50 mg Protein
CCOc1c(C2=NNC3(C2)C(=O)Nc2ccccc23)c(OC)c2ccoc2c1OC (stereo not shown) [Compound 12c, 5’-(6-Ethoxy-4,7-dimethoxy-benzofuran-5-yl)-2’,4’-dihydrospiro(indoline-3,3’-pyrazol)-2-one] | 10 mm |  | 10 mm | 9.76 ± 1.76% | 10.2 ± 1.26% | 11.4 ± 1.53% | 14 ± 1.55% | 10 mm | 20 mm | 18 mm | 62.3% | 12.4% | 6.3% | 
